Tests used:
[1] = biological target: T1, Beta-1 adrenergic receptor (Homo sapiens, UniProt P08588)
physchem = settings: octanol/phosphate buffer, pH 7.4
[2] = Selectivity ratio of IC50 for dopamine 2 receptor over EC50 for human adrenergic beta2 receptor
[3] = Selectivity ratio of IC50 for adrenergic beta1 receptor over EC50 for human adrenergic beta2 receptor
[4] = Selectivity ratio of EC50 for human adrenergic beta2 receptor to EC50 for adrenergic beta1 receptor
D(2) dopamine receptor = D(2) dopamine receptor (Homo sapiens, UniProt P14416)
[5] = biological target: Beta-2 adrenergic receptor (Homo sapiens, UniProt P07550)
[6] = biological target: T1, Beta-1 adrenergic receptor; remark: listed apart in the source
in vivo = settings: rat, plasma, iv
Cavia porcellus [7] = test: Bronchodilatory activity in intratracheally dosed guinea pig assessed as inhibition of histamine-induced bronchoconstriction; settings: inhaled or nasal
[8] = Oral bioavailability in rat; format: ADME, organism-based; settings: in vivo
Cavia porcellus [9] = test: Bronchodilatory activity in intratracheally dosed guinea pig assessed as inhibition of histamine-induced bronchoconstriction after 24 hrs; format: functional

Sequence of D(2) dopamine receptor (P14416 whole entry): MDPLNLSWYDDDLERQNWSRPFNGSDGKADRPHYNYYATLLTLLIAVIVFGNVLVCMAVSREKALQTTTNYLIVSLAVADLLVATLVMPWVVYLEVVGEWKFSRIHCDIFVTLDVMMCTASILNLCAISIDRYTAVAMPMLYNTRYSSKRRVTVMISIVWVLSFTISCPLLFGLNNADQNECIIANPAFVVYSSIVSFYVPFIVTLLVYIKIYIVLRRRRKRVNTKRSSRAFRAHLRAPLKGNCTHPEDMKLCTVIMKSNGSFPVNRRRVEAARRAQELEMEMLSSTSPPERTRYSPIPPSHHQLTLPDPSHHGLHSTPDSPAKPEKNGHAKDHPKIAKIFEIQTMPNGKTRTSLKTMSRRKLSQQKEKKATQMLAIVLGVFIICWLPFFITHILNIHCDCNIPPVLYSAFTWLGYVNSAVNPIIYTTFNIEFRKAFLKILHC
Sequence of Beta-2 adrenergic receptor (P07550 whole entry): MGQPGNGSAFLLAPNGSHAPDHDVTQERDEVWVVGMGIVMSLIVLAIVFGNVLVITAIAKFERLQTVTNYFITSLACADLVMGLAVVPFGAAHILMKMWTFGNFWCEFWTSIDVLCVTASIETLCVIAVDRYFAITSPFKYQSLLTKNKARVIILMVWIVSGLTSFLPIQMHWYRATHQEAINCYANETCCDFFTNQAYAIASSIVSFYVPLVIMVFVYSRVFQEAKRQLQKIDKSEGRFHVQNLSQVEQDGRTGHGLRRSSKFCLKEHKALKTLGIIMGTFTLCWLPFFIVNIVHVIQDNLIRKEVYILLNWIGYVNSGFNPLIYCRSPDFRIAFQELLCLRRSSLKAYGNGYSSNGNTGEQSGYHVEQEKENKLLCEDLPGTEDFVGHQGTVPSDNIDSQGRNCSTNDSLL
T1 sequence (P08588 whole entry): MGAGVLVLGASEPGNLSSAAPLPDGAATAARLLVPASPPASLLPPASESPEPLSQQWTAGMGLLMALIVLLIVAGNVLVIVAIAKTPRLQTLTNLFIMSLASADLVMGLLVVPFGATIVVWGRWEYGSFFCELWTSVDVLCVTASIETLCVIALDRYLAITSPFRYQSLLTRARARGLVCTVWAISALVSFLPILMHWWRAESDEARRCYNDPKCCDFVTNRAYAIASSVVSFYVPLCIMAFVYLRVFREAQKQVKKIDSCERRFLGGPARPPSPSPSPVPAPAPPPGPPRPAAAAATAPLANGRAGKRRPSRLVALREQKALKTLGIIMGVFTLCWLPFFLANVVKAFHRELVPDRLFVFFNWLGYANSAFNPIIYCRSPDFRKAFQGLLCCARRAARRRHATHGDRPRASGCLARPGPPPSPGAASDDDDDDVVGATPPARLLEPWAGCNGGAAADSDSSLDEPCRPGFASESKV

## O=c1[nH]c2c(O)ccc([C@@H](O)CNCCCSCCCOCCc3ccccc3)c2s1
[1]
  EC50: 3.98 nM
physchem
  logD: > 2.5

## CN(CCOCCCNC[C@H](O)c1ccc(O)c2[nH]c(=O)sc12)CCc1ccccc1
[2]
  Ratio IC50/EC50: 794
[3]
  Ratio IC50/EC50: 150
[4]
  Ratio EC50: 79
D(2) dopamine receptor
  IC50: 2510 nM
[5]
  EC50: 2.51 nM
[6]
  IC50: 398 nM
[1]
  EC50: 200 nM

## O=c1[nH]c2c(O)ccc([C@@H](O)CNCCSCCCNCCc3ccccc3)c2s1
In vivo
  half-life: 10.8 h
physchem
  logD: 0.1

## CCOc1ccc(CCNCCCSCCNC[C@H](O)c2ccc(O)c3[nH]c(=O)sc23)cc1
physchem
  logD: 0.4

## O=c1[nH]c2c(O)ccc([C@@H](O)CNCCCOCCNCCc3cccc(Cl)c3)c2s1
[2]
  Ratio IC50/EC50: > 14100
[3]
  Ratio IC50/EC50: 45
[4]
  Ratio EC50: 100
D(2) dopamine receptor
  IC50: > 2510 nM
[5]
  EC50: 0.2 nM
[6]
  IC50: 63.1 nM
[1]
  EC50: 39.8 nM
physchem
  logD: 0

## NC(=O)C(c1ccccc1)(c1ccccc1)[C@@H]1CCN(CCc2ccc3c(c2)CCO3)C1 [DARIFENACIN]
[2]
  Ratio IC50/EC50: 1860
[3]
  Ratio IC50/EC50: 21
Cavia porcellus [7]
  ED80: 14 µg/kg
[4]
  Ratio EC50: 2
In vivo
  half-life: 7.6 h

## O=c1[nH]c2c(O)ccc([C@@H](O)CNCCOCCCNCCc3cccc(Cl)c3)c2s1
physchem
  logD: 0.8

## O=c1[nH]c2c(O)ccc(CCNCCS(=O)(=O)CCCOCCc3ccccc3)c2s1 [SIBENADET]
[2]
  Ratio IC50/EC50: 141
[3]
  Ratio IC50/EC50: > 14000
Cavia porcellus [7]
  ED80: 7 µg/kg
D(2) dopamine receptor
  IC50: 100 nM
[5]
  EC50: 0.631 nM
[6]
  IC50: > 10000 nM
physchem
  logD: 2.6

## O=c1[nH]c2c(O)ccc([C@@H](O)CNCCCOCCNCCc3cccc(Cl)c3Cl)c2s1
[2]
  Ratio IC50/EC50: 2510
[3]
  Ratio IC50/EC50: 63
[4]
  Ratio EC50: 178
D(2) dopamine receptor
  IC50: 2000 nM
[6]
  IC50: 50.1 nM
[1]
  EC50: 158 nM
physchem
  logD: 0.6

## O=c1[nH]c2c(O)ccc([C@@H](O)CNCC[S+]([O-])CCCNCCc3cccc(Cl)c3)c2s1 (some centres undefined)
[2]
  Ratio IC50/EC50: > 560
[3]
  Ratio IC50/EC50: 26
[4]
  Ratio EC50: 8
D(2) dopamine receptor
  IC50: > 3160 nM
[5]
  EC50: 5.01 nM
[6]
  IC50: 158 nM
[1]
  EC50: 39.8 nM
physchem
  logD: 0.2

## O=c1[nH]c2c(O)ccc([C@@H](O)CNCCCOCCOCCc3cccc4ccccc34)c2s1
physchem
  logD: 2.3

## O=c1[nH]c2c(O)ccc([C@@H](O)CNCCCSCCOCCc3ccccc3)c2s1
physchem
  logD: 2.3

## O=c1[nH]c2c(O)ccc([C@@H](O)CNCCCSCCOCCc3cccc4ccccc34)c2s1
In vivo
  half-life: 3.5 h
physchem
  logD: 3.1

## O=c1[nH]c2c(O)ccc([C@@H](O)CNCCSCCCOCCc3ccccc3)c2s1
D(2) dopamine receptor
  IC50: > 1000 nM
physchem
  logD: 2.5

## O=c1[nH]c2c(O)ccc([C@@H](O)CNCCCOCCOCCc3ccccc3)c2s1
physchem
  logD: 1.1

## O=c1[nH]c2c(O)ccc([C@@H](O)CNCCCSCCNCCc3cccc(Cl)c3)c2s1
D(2) dopamine receptor
  IC50: 1580 nM
physchem
  logD: 1.1

## O=c1[nH]c2c(O)ccc([C@@H](O)CNCCCSCCNCCc3ccccc3Cl)c2s1
D(2) dopamine receptor
  IC50: 1000 nM
[1]
  EC50: 39.8 nM

## OCc1cc(C(O)CNCCCCCCOCCCCc2ccccc2)ccc1O (centres undefined) [SALMETEROL]
Cavia porcellus [7]
  ED80: 1 µg/kg
In vivo
  half-life: 2.9 h
physchem
  logD: 1.9

## O=c1[nH]c2c(O)ccc([C@@H](O)CNCCCSCCNCCc3cccc(Cl)c3Cl)c2s1
[2]
  Ratio IC50/EC50: 562
[3]
  Ratio IC50/EC50: 45
[4]
  Ratio EC50: 35
D(2) dopamine receptor
  IC50: 1000 nM
[5]
  EC50: 1.58 nM
[6]
  IC50: 79.4 nM
[1]
  EC50: 63.1 nM
physchem
  logD: 1.7

## O=c1[nH]c2c(O)ccc([C@@H](O)CNCCSCCCNCCc3cccc(C(F)(F)F)c3)c2s1
physchem
  logD: 1.2

## O=c1[nH]c2c(O)ccc([C@@H](O)CNCCS(=O)(=O)CCCNCCc3cccc(Cl)c3)c2s1
D(2) dopamine receptor
  IC50: 794 nM

## O=c1[nH]c2c(O)ccc([C@@H](O)CNCCSCCCNCCc3cccc(Cl)c3Cl)c2s1
In vivo
  half-life: 10.1 h

## CCc1ccc(CCNCCCSCCNC[C@H](O)c2ccc(O)c3[nH]c(=O)sc23)cc1
physchem
  logD: 0.9

## O=c1[nH]c2c(O)ccc([C@@H](O)CNCCSCCCNCCc3ccccc3Cl)c2s1
[8]
  bioavailability: < 1%
Cavia porcellus [7]
  ED80: 7 µg/kg
Cavia porcellus [9]
  inhibition (INH): 49%
In vivo
  half-life: 15.9 h
physchem
  logD: 1

— ChEMBL document CHEMBL1806408, “Design-driven LO: the discovery of new ultra long acting dibasic β2-adrenoceptor agonists” (Bioorg Med Chem Lett, 2011)
